Results taken from patent US11208412B2 (DAEGU-GYEONGBUK MEDICAL INNOVATION FOUNDATION, priority 2017, dated 2021).

Key:
Assay in all cases: Kinase selectivity, DiscoverX scanMAX Kinase assay panel (% control)
Type in all cases: binding
[1] = molecular target: T1, kinases of the scanMAX Kinase assay panel (Homo sapiens, UniProt P00533, L861Q); conditions: EGFR(L861Q); 1 uM
T1 construct: purchased DiscoverX Co. (contract measurement) scanMAX Kinase assay panel
In short: (§1)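 Compounds tested at 1 uM against the scanMAX kinase panel. Signal expressed as % control = (compound − positive control)/(DMSO negative control − positive control) × 100, where positive control = 0% and DMSO = 100%; below 35% counted as activity on that kinase.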

[2] = molecular target: T2, kinases of the scanMAX Kinase assay panel (Homo sapiens, UniProt P24723); conditions: PRKCH; 1 uM
T2 construct: purchased DiscoverX Co. (contract measurement) scanMAX Kinase assay panel
T2 sequence (P24723 whole entry): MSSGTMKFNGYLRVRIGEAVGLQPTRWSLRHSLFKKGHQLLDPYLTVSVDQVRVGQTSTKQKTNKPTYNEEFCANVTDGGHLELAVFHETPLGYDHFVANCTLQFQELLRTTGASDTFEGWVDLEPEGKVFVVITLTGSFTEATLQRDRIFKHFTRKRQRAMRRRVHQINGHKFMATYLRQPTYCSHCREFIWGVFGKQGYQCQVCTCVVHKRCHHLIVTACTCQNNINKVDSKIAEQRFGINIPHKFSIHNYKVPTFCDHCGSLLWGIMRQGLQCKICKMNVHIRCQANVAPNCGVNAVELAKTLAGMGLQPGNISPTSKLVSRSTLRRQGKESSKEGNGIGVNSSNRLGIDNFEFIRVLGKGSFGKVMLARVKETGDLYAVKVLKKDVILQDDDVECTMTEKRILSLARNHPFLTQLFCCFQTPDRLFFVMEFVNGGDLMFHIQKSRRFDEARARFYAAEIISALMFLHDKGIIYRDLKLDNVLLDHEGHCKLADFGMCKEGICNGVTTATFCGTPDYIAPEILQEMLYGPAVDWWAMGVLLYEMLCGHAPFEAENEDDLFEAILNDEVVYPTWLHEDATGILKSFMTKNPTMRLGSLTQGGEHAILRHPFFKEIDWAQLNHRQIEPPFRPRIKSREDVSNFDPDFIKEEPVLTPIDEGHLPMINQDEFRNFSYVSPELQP
In short: as §1

[3] = molecular target: T3, kinases of the scanMAX Kinase assay panel (Homo sapiens, UniProt Q13153); conditions: PAK1; 1 uM
T3 construct: purchased DiscoverX Co. (contract measurement) scanMAX Kinase assay panel
T3 sequence (Q13153 whole entry): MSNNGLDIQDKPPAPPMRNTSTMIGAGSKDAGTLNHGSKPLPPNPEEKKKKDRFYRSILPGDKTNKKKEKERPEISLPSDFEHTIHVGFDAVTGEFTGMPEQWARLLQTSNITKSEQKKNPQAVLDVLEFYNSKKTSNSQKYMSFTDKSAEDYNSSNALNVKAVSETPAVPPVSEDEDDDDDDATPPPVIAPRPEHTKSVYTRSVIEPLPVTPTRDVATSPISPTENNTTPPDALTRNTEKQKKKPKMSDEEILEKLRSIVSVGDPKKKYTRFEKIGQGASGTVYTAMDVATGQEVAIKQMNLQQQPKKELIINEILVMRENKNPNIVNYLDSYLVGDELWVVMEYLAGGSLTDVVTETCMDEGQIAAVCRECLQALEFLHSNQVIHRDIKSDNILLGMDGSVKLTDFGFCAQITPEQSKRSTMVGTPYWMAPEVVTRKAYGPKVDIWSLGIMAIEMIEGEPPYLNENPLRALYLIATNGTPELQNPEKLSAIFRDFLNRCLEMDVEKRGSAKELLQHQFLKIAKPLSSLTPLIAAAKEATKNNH
In short: as §1

[4] = molecular target: T4, kinases of the scanMAX Kinase assay panel (Homo sapiens, UniProt Q15759); conditions: p38-beta; 1 uM
T4 construct: purchased DiscoverX Co. (contract measurement) scanMAX Kinase assay panel
T4 sequence (Q15759 whole entry): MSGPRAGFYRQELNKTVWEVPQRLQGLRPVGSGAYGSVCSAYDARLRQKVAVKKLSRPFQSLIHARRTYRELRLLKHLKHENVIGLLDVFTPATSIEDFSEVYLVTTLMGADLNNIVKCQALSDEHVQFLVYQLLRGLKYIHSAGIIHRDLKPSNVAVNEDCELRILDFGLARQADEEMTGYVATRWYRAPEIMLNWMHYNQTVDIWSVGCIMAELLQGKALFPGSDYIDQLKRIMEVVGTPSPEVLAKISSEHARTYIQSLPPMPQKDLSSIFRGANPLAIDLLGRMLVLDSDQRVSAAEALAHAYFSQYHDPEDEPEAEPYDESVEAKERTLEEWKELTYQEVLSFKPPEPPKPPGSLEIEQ
In short: as §1

[5] = molecular target: T5, kinases of the scanMAX Kinase assay panel (Homo sapiens, UniProt Q92772); conditions: CDKL2; 1 uM
T5 construct: purchased DiscoverX Co. (contract measurement) scanMAX Kinase assay panel
T5 sequence (Q92772 1-493): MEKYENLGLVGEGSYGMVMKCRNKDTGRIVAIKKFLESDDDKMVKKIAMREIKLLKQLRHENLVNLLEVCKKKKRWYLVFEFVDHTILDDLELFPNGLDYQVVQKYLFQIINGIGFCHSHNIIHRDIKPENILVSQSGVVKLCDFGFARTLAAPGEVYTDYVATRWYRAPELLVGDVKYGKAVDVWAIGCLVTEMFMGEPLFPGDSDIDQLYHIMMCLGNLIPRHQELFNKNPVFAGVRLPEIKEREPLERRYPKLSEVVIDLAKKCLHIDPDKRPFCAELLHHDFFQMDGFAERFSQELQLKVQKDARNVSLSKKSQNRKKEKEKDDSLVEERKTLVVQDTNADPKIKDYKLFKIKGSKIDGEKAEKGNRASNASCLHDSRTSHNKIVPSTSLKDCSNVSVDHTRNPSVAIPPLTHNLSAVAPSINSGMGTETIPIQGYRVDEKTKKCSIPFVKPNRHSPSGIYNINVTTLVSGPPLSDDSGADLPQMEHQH
In short: as §1

[6] = molecular target: T6, kinases of the scanMAX Kinase assay panel (Homo sapiens, UniProt Q9NRH2); conditions: kinase SNRK; 1 uM in DMSO
T6 construct: purchased DiscoverX Co. (contract measurement) scanMAX Kinase assay panel
T6 sequence (Q9NRH2 1-765): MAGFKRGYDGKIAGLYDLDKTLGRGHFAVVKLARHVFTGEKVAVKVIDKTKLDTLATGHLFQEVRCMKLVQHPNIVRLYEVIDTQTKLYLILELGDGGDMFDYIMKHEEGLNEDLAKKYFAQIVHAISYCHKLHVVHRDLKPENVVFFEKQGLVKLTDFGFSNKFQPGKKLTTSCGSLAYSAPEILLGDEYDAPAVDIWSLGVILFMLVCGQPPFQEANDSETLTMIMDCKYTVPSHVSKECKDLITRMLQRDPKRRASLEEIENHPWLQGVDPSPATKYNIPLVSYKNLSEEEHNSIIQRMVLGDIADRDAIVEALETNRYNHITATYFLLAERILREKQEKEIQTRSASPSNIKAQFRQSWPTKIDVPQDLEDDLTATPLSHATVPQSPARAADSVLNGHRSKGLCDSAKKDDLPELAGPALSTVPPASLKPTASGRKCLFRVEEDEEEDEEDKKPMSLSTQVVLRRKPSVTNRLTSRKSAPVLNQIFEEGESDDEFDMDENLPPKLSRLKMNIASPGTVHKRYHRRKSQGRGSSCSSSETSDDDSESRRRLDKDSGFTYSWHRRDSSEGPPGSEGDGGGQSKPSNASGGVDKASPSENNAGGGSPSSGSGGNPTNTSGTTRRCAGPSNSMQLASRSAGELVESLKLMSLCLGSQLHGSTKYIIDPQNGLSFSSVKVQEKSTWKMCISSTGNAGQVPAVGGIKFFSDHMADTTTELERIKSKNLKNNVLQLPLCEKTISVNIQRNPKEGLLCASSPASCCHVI
In short: as §1

T1 sequence (P00533 25-1210 L861Q): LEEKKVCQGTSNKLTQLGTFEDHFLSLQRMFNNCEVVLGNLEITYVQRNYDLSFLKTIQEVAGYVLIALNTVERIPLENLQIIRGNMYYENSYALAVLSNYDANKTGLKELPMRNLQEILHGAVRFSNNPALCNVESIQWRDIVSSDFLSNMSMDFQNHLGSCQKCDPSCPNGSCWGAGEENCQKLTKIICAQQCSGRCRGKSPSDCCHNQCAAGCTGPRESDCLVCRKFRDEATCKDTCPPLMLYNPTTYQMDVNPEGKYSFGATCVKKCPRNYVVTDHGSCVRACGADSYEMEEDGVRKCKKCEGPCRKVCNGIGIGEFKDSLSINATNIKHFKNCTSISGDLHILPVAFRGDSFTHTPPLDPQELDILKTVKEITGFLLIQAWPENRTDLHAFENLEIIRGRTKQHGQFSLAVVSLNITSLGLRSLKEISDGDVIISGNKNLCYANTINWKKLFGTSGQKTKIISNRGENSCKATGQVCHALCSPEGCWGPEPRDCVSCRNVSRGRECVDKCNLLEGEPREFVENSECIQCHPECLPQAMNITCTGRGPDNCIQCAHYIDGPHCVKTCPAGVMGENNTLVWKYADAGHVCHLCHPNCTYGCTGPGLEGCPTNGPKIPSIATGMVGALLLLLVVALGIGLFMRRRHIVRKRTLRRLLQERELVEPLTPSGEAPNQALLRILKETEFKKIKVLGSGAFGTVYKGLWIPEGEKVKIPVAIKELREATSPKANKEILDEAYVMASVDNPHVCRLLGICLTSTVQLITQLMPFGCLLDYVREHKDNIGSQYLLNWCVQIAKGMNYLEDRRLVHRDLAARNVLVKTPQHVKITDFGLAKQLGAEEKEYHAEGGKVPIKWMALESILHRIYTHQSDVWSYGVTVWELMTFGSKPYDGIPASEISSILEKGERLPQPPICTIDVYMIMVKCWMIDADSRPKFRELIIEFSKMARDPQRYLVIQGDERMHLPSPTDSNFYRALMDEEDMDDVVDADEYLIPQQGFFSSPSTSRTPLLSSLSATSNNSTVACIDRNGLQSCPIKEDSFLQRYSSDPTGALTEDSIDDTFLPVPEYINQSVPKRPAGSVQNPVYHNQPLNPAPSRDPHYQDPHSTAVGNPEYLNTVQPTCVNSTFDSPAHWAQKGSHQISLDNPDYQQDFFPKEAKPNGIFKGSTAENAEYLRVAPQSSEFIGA

Row | SMILES | remaining binding at 1 µM [1] [%] | remaining binding at 1 µM [2] [%] | remaining binding at 1 µM [3] [%] | remaining binding at 1 µM [4] [%] | remaining binding at 1 µM [5] [%] | remaining binding at 1 µM [6] [%]
1 | CC1(Nc2nc(Nc3cnn([C@H]4CCN(C5COC5)C[C@@H]4F)c3Cl)nc3[nH]cc(C#N)c23)CC1 [Example 52, 2-((5-chloro-1-((3S,4S)-3-fluoro-1-(oxetane-3-yl)piperidine-4-yl)-1H-pyrazole-4-yl)amino)((1-methylcyclopropyl)amino)-7H-pyrrolo[2,3-d]pyrimidine-5-carbonitrile] | 53 | 100 | 75 | 92 | 73 | 7.6
2 | CNc1nc(Nc2ccc(C(=O)N3CCOCC3)cc2OC)nc2[nH]cc(C#N)c12 [Example 1, 2-((2-methoxy-4-(morpholine-4-carbonyl)phenyl)amino)-4-(methylamino)-7H-pyrrolo[2,3-d]pyrimidine-5-carbonitrile] | 100 | 93 | 100 | 98 | 99 | 64
3 | CCNc1nc(Nc2ccc(C(=O)N3CCC(N4CCOCC4)CC3)cc2OC)nc2[nH]cc(C(F)(F)F)c12 [Example 104, (4-((4-(ethylamino)-5-(trifluoromethyl)-7H-pyrrolo[2,3-d]pyrimidine-2-yl)amino)-3-methoxyphenyl)(4-morpholinopiperidine-1-yl)methanone] | 99 | 100 | 71 | 100 | 100 | 69
